Test results taken from patent publication US9932637B2, “Genetic polymorphisms associated with cardiovascular disorders and drug response, methods of detection and uses thereof” (CELERA CORPORATION, priority 2003, dated 2018).

System: patients with prior myocardial infarction (CARE study)
Assay: CARE: association of SNPs with pravastatin treatment in cardiovascular events prevention (logistic regression, odds ratio pravastatin vs placebo by genotype; Table 8)
Assay type: in vivo, human
Details: All Patients; for Total Cardiovascular Disease Events, n/total (%) / Non-fatal MI (def & prob), n/total (%) / Fatal/Non-fatal MI (def & prob), n/total (%) / Fatal/Non-fatal Atherosclerotic CV Disease, n/total (%) / Hosp. for Cardiovascular Disease, n/total (%) / Total Mortality, n/total (%): Prava
Source text: In order to identify genetic markers associated with acute coronary events (e.g. MI, stroke, unstable angina, congestive heart failure, etc.) or response to statin treatment for the prevention of coronary events, samples from the Cholesterol and Recurrent Events (CARE) study (a randomized multicentral double-blinded trial on secondary prevention of acute coronary events with pravastatin) (Sacks et al., 1991, Am. J. Cardiol. 68: 1436-1446) were genotyped. A well-documented myocardial infarction (MI) was one of the enrollment criteria for entry into the CARE study. Patients were enrolled in the CARE trial from 80 participating study centers. […] Patients were randomized to receive either 40 mg of pravastatin once daily or a matching placebo. The primary endpoint of the trial was death from coronary heart disease and the median duration of follow-up was 5.0 years (range, 4.0 to 6.2 years). […] Secondary endpoints of other related cardiovascular or metabolic disease events, and changes in clinical variables were also recorded in pravastatin-treated and placebo groups. All individuals included in the study had signed a written informed consent form and the study protocol was approved by the respective Institutional Review Boards (IRBs).
For genotyping SNPs in CARE patient samples, DNA was extracted from blood samples using conventional DNA extraction methods such as the QIA-amp kit from Qiagen. Genotypes were obtained on an ABI PRISM® 7900HT Sequence Detection PCR system (Applied Biosystems, Foster City, Calif.) by kinetic allele-specific PCR, similar to the method described by Germer et al. (Germer S., Holland M. J., Higuchi R. 2000, Genome Res. 10: 258-266).
Statistical analysis for association of SNPs with pravastatin treatment in cardiovascular events prevention (Table 8) was carried out using an overall logistic regression model that included an intercept, a parameter for the effect of a genotype containing two rare alleles versus a genotype containing no rare alleles, a parameter for the effect of a genotype containing one rare allele versus a genotype containing no rare alleles, a parameter for the effect of use of pravastatin versus the use of placebo, and parameters for the interaction effects between SNP genotypes and pravastatin use. The test of the overall model is a chi-square test with two degrees of freedom for analyses containing all three genotypes, and one degree of freedom for analyses containing two genotypes.
Effect sizes were estimated through odds ratios (pravastatin group versus placebo) for carriers of each genotype (groups of 0, 1, and 2 minor allele carriers). The effect was considered to be significant if p-value for testing whether any of the interactions between SNP genotypes and pravastatin use were <0.05. […] Odds ratios less than one indicate that the specific SNP allele has a protective effect and odds ratios greater than one indicate that the specific SNP allele has an adverse effect.

[1] = HLA-DPB1 hCV25651174, Coronary Artery Bypass or Revascularization
[2] = HLA-DPB1 hCV25651174, Fatal CHD/Definite Non-fatal MI
[3] = HLA-DPB1 hCV25651174, Fatal/Non-fatal Atherosclerotic CV Disease
[4] = HLA-DPB1 hCV25651174, Fatal/Non-fatal MI (def & prob)
[5] = HLA-DPB1 hCV25651174, Hosp. for Cardiovascular Disease
[6] = HLA-DPB1 hCV25651174, Non-fatal MI (def & prob)
[7] = HLA-DPB1 hCV25651174, Total Cardiovascular Disease Events
[8] = HLA-DPB1 hCV25651174, Total Coronary Heart Disease Events
[9] = ICAM1 hCV8726337, Fatal/Non-fatal MI (def & prob)
[10] = ICAM1 hCV8726337, Non-fatal MI (def & prob)
[11] = ICAM3 hCV25473653, Fatal/Non-fatal Atherosclerotic CV Disease
[12] = ICAM3 hCV25473653, Total Cardiovascular Disease Events
[13] = IGF2R hCV2200985, Hosp. for Cardiovascular Disease

## CC[C@H](C)C(=O)O[C@H]1C[C@H](O)C=C2C=C[C@H](C)[C@H](CC[C@@H](O)C[C@@H](O)CC(=O)O)[C@H]21 [pravastatin]
HLA-DPB1 hCV25651174, 2 Rare Alleles, n/total 64/144
  Total Cardiovascular Disease Events, n/total (%): (44.4%)
[1]
  Prava vs. Placebo Odds Ratio, 0 Rare Alleles: 0.68
  Prava vs. Placebo Odds Ratio, 1 Rare Alleles: 0.58
  Prava vs. Placebo Odds Ratio, 2 Rare Alleles: 2.11
[2]
  Prava vs. Placebo Odds Ratio, 0 Rare Alleles: 0.57
  Prava vs. Placebo Odds Ratio, 1 Rare Alleles: 0.74
  Prava vs. Placebo Odds Ratio, 2 Rare Alleles: 1.77
[3]
  Prava vs. Placebo Odds Ratio, 0 Rare Alleles: 0.66
  Prava vs. Placebo Odds Ratio, 1 Rare Alleles: 0.78
  Prava vs. Placebo Odds Ratio, 2 Rare Alleles: 1.60
[4]
  Prava vs. Placebo Odds Ratio, 0 Rare Alleles: 0.54
  Prava vs. Placebo Odds Ratio, 1 Rare Alleles: 0.67
  Prava vs. Placebo Odds Ratio, 2 Rare Alleles: 1.97
[5]
  Prava vs. Placebo Odds Ratio, 0 Rare Alleles: 0.70
  Prava vs. Placebo Odds Ratio, 1 Rare Alleles: 0.70
  Prava vs. Placebo Odds Ratio, 2 Rare Alleles: 1.42
[6]
  Prava vs. Placebo Odds Ratio, 0 Rare Alleles: 0.59
  Prava vs. Placebo Odds Ratio, 1 Rare Alleles: 0.68
  Prava vs. Placebo Odds Ratio, 2 Rare Alleles: 2.23
[7]
  Prava vs. Placebo Odds Ratio, 0 Rare Alleles: 0.69
  Prava vs. Placebo Odds Ratio, 1 Rare Alleles: 0.71
  Prava vs. Placebo Odds Ratio, 2 Rare Alleles: 1.35
[8]
  Prava vs. Placebo Odds Ratio, 0 Rare Alleles: 0.69
  Prava vs. Placebo Odds Ratio, 1 Rare Alleles: 0.73
  Prava vs. Placebo Odds Ratio, 2 Rare Alleles: 1.81
ICAM1 hCV8726337, 0 Rare Alleles, n/total 28/495
  Non-fatal MI (def & prob), n/total (%): (5.7%)
ICAM1 hCV8726337, 0 Rare Alleles, n/total 31/495
  Fatal/Non-fatal MI (def & prob), n/total (%): (6.3%)
ICAM1 hCV8726337, 1 Rare Allele, n/total 76/736
  Non-fatal MI (def & prob), n/total (%): (10.3%)
ICAM1 hCV8726337, 1 Rare Allele, n/total 84/736
  Fatal/Non-fatal MI (def & prob), n/total (%): (11.4%)
ICAM1 hCV8726337, 2 Rare Alleles, n/total 30/282
  Non-fatal MI (def & prob), n/total (%): (10.6%)
ICAM1 hCV8726337, 2 Rare Alleles, n/total 31/282
  Fatal/Non-fatal MI (def & prob), n/total (%): (11.0%)
[9]
  Prava vs. Placebo Odds Ratio, 0 Rare Alleles: 0.39
  Prava vs. Placebo Odds Ratio, 1 Rare Alleles: 0.85
  Prava vs. Placebo Odds Ratio, 2 Rare Alleles: 0.77
[10]
  Prava vs. Placebo Odds Ratio, 0 Rare Alleles: 0.39
  Prava vs. Placebo Odds Ratio, 1 Rare Alleles: 0.83
  Prava vs. Placebo Odds Ratio, 2 Rare Alleles: 0.94
ICAM3 hCV25473653, 0 Rare Alleles, n/total 299/924
  Fatal/Non-fatal Atherosclerotic CV Disease, n/total (%): (32.4%)
ICAM3 hCV25473653, 0 Rare Alleles, n/total 376/924
  Total Cardiovascular Disease Events, n/total (%): (40.7%)
ICAM3 hCV25473653, 1 Rare Allele, n/total 191/511
  Fatal/Non-fatal Atherosclerotic CV Disease, n/total (%): (37.4%)
ICAM3 hCV25473653, 1 Rare Allele, n/total 230/511
  Total Cardiovascular Disease Events, n/total (%): (45.0%)
ICAM3 hCV25473653, 2 Rare Alleles, n/total 14/70
  Fatal/Non-fatal Atherosclerotic CV Disease, n/total (%): (20.0%)
ICAM3 hCV25473653, 2 Rare Alleles, n/total 19/70
  Total Cardiovascular Disease Events, n/total (%): (27.1%)
[11]
  Prava vs. Placebo Odds Ratio, 0 Rare Alleles: 0.71
  Prava vs. Placebo Odds Ratio, 1 Rare Alleles: 0.97
  Prava vs. Placebo Odds Ratio, 2 Rare Alleles: 0.37
[12]
  Prava vs. Placebo Odds Ratio, 0 Rare Alleles: 0.71
  Prava vs. Placebo Odds Ratio, 1 Rare Alleles: 0.93
  Prava vs. Placebo Odds Ratio, 2 Rare Alleles: 0.37
IGF2R hCV2200985, 0 Rare Alleles, n/total 465/1175
  Hosp. for Cardiovascular Disease, n/total (%): (39.6%)
IGF2R hCV2200985, 1 Rare Allele, n/total 137/316
  Hosp. for Cardiovascular Disease, n/total (%): (43.4%)
IGF2R hCV2200985, 2 Rare Alleles, n/total 5/24
  Hosp. for Cardiovascular Disease, n/total (%): (20.8%)
[13]
  Prava vs. Placebo Odds Ratio, 0 Rare Alleles: 0.75
  Prava vs. Placebo Odds Ratio, 1 Rare Alleles: 0.88
  Prava vs. Placebo Odds Ratio, 2 Rare Alleles: 0.12
IL1A hCV9546471, 0 Rare Alleles, n/total 52/759
  Total Mortality, n/total (%): (6.9%)
IL1A hCV9546471, 1 Rare Allele, n/total 28/617
  Total Mortality, n/total (%): (4.5%)
IL1A hCV9546471, 2 Rare Alleles, n/total 4/132
  Total Mortality, n/total (%): (3.0%)
IL1A hCV9546471, Total Mortality
  Prava vs. Placebo Odds Ratio, 0 Rare Alleles: 1.40
